The record followed here is patent publication US20260373094A1, “MICROSTRUCTURE CONTAINING WATER-SOLUBLE AND FAT-SOLUBLE IMMUNOMODULATOR” (IUCF-HYU (INDUSTRY-UNIVERSITY COOPERATION FOUNDATION …, priority 2022, published 2026).

For data set [1], the system named is B16F10 melanoma cells. Description: Wound healing, 2D melanoma cell culture. Format: cell-based. The following applies: SD208 1 μmol/L, TGF-β 5 ng/m, 24 hours, 2D culture. The method, then:
For 2D cell culture, 8×10^4 B16F10 melanoma cells were cultured in a 12-well plate using DMEM until the wells were full. Thereafter, the cells filling the wells were scratched in a cross shape to create a wound, and treated with the immunoadjuvant SD208 (1 μmol/L) and the tumor marker TGF-β (5 ng/m) for 24 hours, and the wound healing rate over time was imaged using a microscope.

Data set [2] concerns PD-L1. Description: Inhibition of PD-L1 protein expression in melanoma cells (confocal, flow cytometry). Format: cell-based. The note with it: SD208 1 μmol/L, TGF-β 5 ng/m, 24 hours, B16F10 melanoma cells. The method, then:
5×10^4 B16F10 melanoma cells per well of a cell culture plate were cultured in a 12-well plate using DMEM, and then treated with the immunoadjuvant SD208 (1 μmol/L) and the tumor marker TGF-β (5 ng/m) for 24 hours.
Thereafter, the cells were imaged using a STELLARIS 8 STED confocal laser scanning microscope after treatment with an anti-PD-L1 Alexa 488 fluorescent antibody. In addition, the fluorescence expression level of the PD-L1 protein was confirmed through flow cytometry.

Data set [3] has as its system TGF-β. Nature of the data set: Inhibition of TGF-β activity in melanoma cells (immunofluorescence, western blotting). Format: cell-based. The note with it: SD208 1 μmol/L, TGF-β 5 ng/m, 24 hours, B16F10 melanoma cells. The method, then:
5×10^4 B16F10 melanoma cells per well of a cell culture plate were cultured in a 12-well plate using Dulbecco's Modified Eagle Medium (DMEM), and then treated with the immunoadjuvant SD208 (1 μmol/L) and the tumor marker TGF-β (5 ng/m) for 24 hours. Thereafter, cells were treated with an anti-α-tubulin Alexa 488 fluorescent antibody and 4′,6-diamidino-2-phenylindole (DAPI), and then imaged using the STELLARIS 8 STED confocal laser scanning microscope.
In addition, changes in the expression levels of proteins activated by TGF-β were confirmed by western blotting using anti-Psmad3, anti-smad3, anti-N-cadherin, and anti-E-cadherin antibodies.

Data set [4] relates to B16F10 melanoma cells. Description: Melanoma cell spheroid volume, 3D cell culture. Format: cell-based. The note with it: SD208 1 μmol/L, TGF-β 5 ng/m, eight days, 3D culture. As to the method: For 3D cell culture, 1,000 B16F10 melanoma cells per 100 μl of DMEM were placed in a PCR tube and collected at the bottom by centrifugation. After culturing the cells in the PCR tubes for three days, they were transferred to a 96-well plate and treated with DMEM containing the immunoadjuvant SD208 (1 μmol/L) and the tumor marker TGF-β (5 ng/m). The DMEM was exchanged with fresh DMEM every three days, and the changes in the size of melanoma cell spheroids were measured for eight days using a microscope.

Data set [5] is described as follows: Confocal imaging of fluorescent substances in composite solvent microstructure. Format: physicochemical. The following applies: PBS:DMSO 9:1, 20% (w/v) hyaluronic acid. As to the method:
The fluorescein isothiocyanate (FITC) fluorescent substance which is soluble only in a water-soluble solvent, and the Cy5.5 fluorescent substance, which is soluble only in a fat-soluble solvent, were added to a composite solvent containing a mixture of a water-soluble solvent (PBS) and a fat-soluble solvent (DMSO) in a ratio of 9:1 (10% (v/v) fat-soluble) and 20% (w/v) hyaluronic acid was further dissolved, and microstructures were fabricated using the method of Manufacturing Example 1. Thereafter, the composite solvent fluorescence microstructures were imaged using the STELLARIS 8 STED confocal laser scanning microscope.

Regarding `Fc1ccc(Cl)cc1-c1nc(Nc2ccncc2)c2nccnc2n1` [SD208], in data set [1], the “wound healing effect by TGF-β” value was “inhibited”. The “fluorescence value of PD-L1 (PD-L1 expression)” value in data set [2] is listed as “decreased”. For the same compound, the “effect of TGF-β” value in data set [3] was “inhibited the effect of TGF-β”. In addition, the “expression of proteins activated by TGF-β” value in data set [3] (Psmad3, smad3, N-cadherin, E-cadherin) is given as “suppressing the expression of proteins activated by TGF-β”. For the same compound, the “melanoma cell spheroid volume increase effect caused by TGF-β” value in data set [4] is “inhibited”.

Regarding Cy5.5, in data set [5], the “distribution within the microstructure” value was “evenly distributed”.
